Key:
Gr1^+CD11b^+ MDSCs = assay: MDSC accumulation in colon, spleen and PBLs of CRC-mice; format: in vivo, mouse
MDSCs [1] = assay: NO^− and ROS production by MDSCs of treated CRC-mice (flow cytometry); format: in vivo, mouse
Protocol: Three weeks after the second DSS treatment mice were sacrificed and spleens were analyzed.

[2] = tested on: MDSCs isolated from spleens of CRC-mice; assay: NO^− and ROS production in ex vivo cultured MDSCs; format: cell-based, mouse; details: 2.5 μmol/L, 24 h
T-cells [3] = assay: CFSE T-cell proliferation assay, splenocytes of CRC-mice; format: in vivo, mouse; details: CFSE-labeled Thy1.2^+ T-cells, TCR-CD28 mediated activation, vs untreated CRC-mice
Protocol: (§1) Splenocytes or purified T-cells isolated by a magnetic column separation system (Miltenyi Biotec) were labeled with 5 M CFSE (Invitrogen) and subjected to TCR-mediated activation as previously described (16). Next, the effect of the given chemotherapies on the immune status was evaluated. This was performed by testing the function of the whole T-cell population (FIG. 9J) as well as the CD8^+ T-cells (FIG. 9K) in all experimental groups along with measurements of the expression levels of CD247 in CD3^+ (FIG. 9L) and in CD8^+ T-cells (FIG. 9M). T-cell proliferative response was assessed by monitoring cell divisions of gated CFSE-labeled Thy1.2^+ (CD90^+) T-cells upon TCR-CD28 mediated activation.

CD247 [4] = assay: CD247 expression in T-cells of CRC-mice; format: in vivo, mouse; details: splenocytes of CRC-mice
Protocol: as §1, with “Next,” for “Splenocytes or purified T-cells isolated by a magnetic column separation system (Miltenyi Biotec) were labeled with 5 M CFSE (Invitrogen) and subjected to TCR-mediated activation as previously described (16). Next,”

cleaved caspase-3 [5] = assay: Cleaved caspase-3 in splenic MDSCs of treated CRC-mice; format: in vivo, mouse
Protocol: Cleaved caspase-3 staining was performed using primary Rabbit anti-cleaved caspase-3 (Cell Signaling Technology, Asp175) and secondary FITC-horse anti-Rabbit antibody (Thermo Scientific).
Therefore, Splenic MDSCs from each group were analyzed for the expression of activated (cleaved) caspase-3 by flow cytometry analysis. […] Cleaved caspase-3 levels were then evaluated on the primary MDSCs, differentiated CD11c^+CD11b^+DCs and F4/80^+CD11b^+ macrophages.

[6] = tested on: MDSCs isolated from spleens of CRC mice; assay: Cleaved caspase-3 in ex vivo cultured MDSCs, DCs and macrophages; format: cell-based, mouse
CRC-derived MDSC = assay: Ex vivo GM-CSF mediated myeloid-cell differentiation; format: cell-based, mouse; details: 10 ng/ml GM-CSF, 72 h, vs GM-CSF only
TNFα, S100A9 = assay: TNFα and S100A9 mRNA in ex vivo cultured MDSCs (Real Time PCR); format: cell-based, mouse; details: 3 days
MDSCs [7] = assay: BCG chronic inflammation mouse model: MDSC levels; format: in vivo; details: PBLs and spleen, compared to inflamed-untreated mice
Protocol: (§2) Mice were injected intraperitoneally with 10 mg/kg body weight of Azoxymethan (AOM, purchased from Sigma-Aldrich (St. Louis, Mo., USA)) dissolved in physiological saline twice in two weeks intervals. Two weeks later, 2% dextran sulfate sodium (DSS, purchased from MP biochemicals Inc. (Santa Ana, Calif., USA)) was given in the drinking water over 7 days, followed by 14 days of regular water (15). This cycle was repeated twice. Animals were sacrificed and analyzed three weeks after the last treatment. To induce a pathology-free chronic inflammation, a previously described protocol subjecting mice to heat-killed Mycobacterium […] (BCG) treatment (16) was used.
(§3) Next, the immunoregulatory effects of 5FU and CPT11 were examined in a mouse model for chronic inflammation and associated immunosuppression (10), as described in the materials and method section above and in FIG. 13A. This experiment was performed in order to investigate whether the differential effects of the drugs are related to the presence of the tumor. Briefly, the mouse model for chronic inflammation was established by three repeated injections of heat-killed BCG bacteria. A day after the second BCG injection, mice were treated twice a week with 5FU, CPT11 or a 5FU/CPT11 combination. […] No changes in CD4^+Foxp3^+ Tregs percentage were detected (FIG. 13H), confirming that these chemotherapies specifically affect MDSCs.

MDSCs [8] = assay: BCG chronic inflammation mouse model: ROS and NO^− production by MDSCs; format: in vivo; details: splenic MDSCs, compared to inflamed-untreated mice
Protocol: as §2, §3

cleaved caspase-3 [9] = assay: BCG chronic inflammation mouse model: cleaved caspase-3 in MDSCs; format: in vivo; details: compared to inflamed-untreated mice
CD247 [10] = assay: BCG chronic inflammation mouse model: CD247 expression in T-cells; format: in vivo; details: spleen and PBLs of inflamed mice
Protocol: as §2
(§4) Next, it was assessed whether the 5FU and CPT11 opposite effects on MDSCs have different impacts on the host's immune competence. […] Since NK-cell activity is mediated via natural cytotoxicity receptors (NCRs), which associate with and depend on CD247, NK-cell in vivo function was assessed by monitoring the clearance of adoptively transferred allogeneic cells.

T-cells [11] = assay: BCG chronic inflammation mouse model: T-cell proliferation; format: in vivo; details: splenocytes of inflamed mice
Protocol: as §2
Splenocytes or purified T-cells isolated by a magnetic column separation system (Miltenyi Biotec) were labeled with […] CFSE (Invitrogen) and subjected to TCR-mediated activation as previously described (16).
as §4

CD247 [12] = assay: BCG chronic inflammation mouse model: CD247 expression in NK-cells; format: in vivo; details: chronically inflamed mice
Protocol: as §2, §4

NK-cells = assay: BCG chronic inflammation mouse model: NK-cell mediated clearance of allogeneic cells; format: in vivo; details: spleen and PBLs of inflamed mice
MDSC = details: mice, reference (11); cited from earlier work
MDSCs [13] = assay: Myeloid cell differentiation in vivo in CRC-mice
Protocol: Isolated mouse splenocytes and peripheral blood lymphocytes (PBLs) were subjected to cell surface staining as previously described (16), using the following antibodies (Biolegend): FITC-labeled anti-Gr1, and anti-CD11c; PE-labeled anti-F4/80, anti-CD3s, and anti-mNKp46; and biotinylated anti-CD11b detected with streptavidin-Cy5. Intracellular staining for CD247 was performed as previously described (16) by using FITC-labeled anti-CD247 or biotinylated anti-CD247 (lone H146), the latter detected with streptavidin-Cy5. Foxp3 staining was performed according to the manufacturer's instructions (Miltenyi Biotec). Cleaved caspase-3 staining was performed using primary Rabbit anti-cleaved caspase-3 (Cell Signaling Technology, Asp175) and secondary FITC-horse anti-Rabbit antibody (Thermo Scientific).
(§5) For that purpose the expression of the S100A8/9 pro-inflammatory proteins was assessed.

S100A8/9 = details: MDSCs from spleen of CRC-mice
Protocol: Cells isolated from the spleen or colon were analyzed by Western blotting for the expression of various proteins as previously described (16). The antibodies used for immunoblotting were: anti-S100A9, anti-S100A8, and anti-αTubulin. Specific antibodies were detected by anti-rabbit or anti-goat antibodies conjugated to horseradish peroxidase (Jackson Immunoresearch), followed by enhanced chemiluminescence and exposure at blotting reader (Bio-Rad software).
as §5

O=c1[nH]cc(F)c(=O)[nH]1 [5FU, 5-fluoruracil]
MDSC numbers / infiltration in colon (Gr1^+CD11b^+ MDSCs; lamina propria and epithelium, flow cytometry, vs untreated CRC-mice): significantly reduced MDSC infiltration
MDSC numbers in spleens (Gr1^+CD11b^+ MDSCs; vs untreated, CPT11 or 5FU/CPT11 treated CRC-mice): significantly decreased MDSC numbers
NO^− production (MDSCs [1]; lamina propria and epithelial MDSCs, vs untreated CRC mice): significant reduction of NO^− production
NO^− and ROS production (MDSCs [1]; splenic MDSCs, compared to untreated CRC-mice): significantly reduced NO^− and ROS production
NO^− or ROS production in purified cultured MDSCs [2]: did not alter NO^− or ROS production
T-cell proliferative ability (T-cells [3]): did not affect T-cell proliferation
CD247 expression levels in T-cells (CD247 [4]): elevated levels
cleaved caspase-3 expression in spleen MDSCs (cleaved caspase-3 [5]): significant increased cleaved caspase-3 expression
5FU-induced apoptosis (cleaved caspase-3), DCs and macrophages ([6]; ex vivo, 10 ng/ml GM-CSF, 0, 1.25, 2.5, and 5, 3 days): insensitive
5FU-induced apoptosis (cleaved caspase-3), primary MDSCs ([6]; ex vivo, 10 ng/ml GM-CSF, 0, 1.25, 2.5, and 5 mol/L, 3 days): evident only in non-differentiated MDSCs
cleaved caspase-3 expression (MFI) in monocytic and granulocytic MDSCs ([6]; ex vivo, 2.5, 3 days, monocytic population more sensitive): enhanced cleaved caspase-3 expression
cleaved caspase-3 in purified cultured MDSCs ([6]; ex vivo, various doses, 3 days, dose-dependent): cleaved caspase-3 up-regulation
GM-CSF mediated CRC-derived MDSC differentiation (CRC-derived MDSC): enabled MDSC differentiation to DCs and macrophages
mRNA levels of TNFα and S100A9 (TNFα, S100A9): decreased levels of these factors
MDSC levels (MDSCs [7]): significantly reduced MDSC levels
ROS and NO^− production (MDSCs [8]): significantly reduced
cleaved caspase-3 levels (cleaved caspase-3 [9]): elevated cleaved caspase-3 levels
CD247 expression in T-cells (CD247 [10]): significant recovery of CD247 expression
T-cell proliferation (T-cells [11]): significant recovery
CD247 expression in NK-cells (CD247 [12]): almost completely recovered
NK-cell activity (clearance of adoptively transferred allogeneic cells) (NK-cells): complete recovery of NK-cell activity
tumor load within the colon (hematoxylin-eosin histopathology) (CRC-mice; monotherapy for three weeks, vs untreated CRC mice): decreased tumor load and recovery of colon architecture
histopathological analysis of colon sections (hematoxylin-eosin) (CRC-mice; three weeks after second DSS treatment): only few aberrant crypt foci and tumors
MDSC apoptosis and tumor regression (MDSC): selective MDSC apoptosis and tumor regression
matured antigen presenting cells (CD80 and MHCII expression) (MDSCs [13]): induced CD80 and MHCII expression
myeloid cell differentiation in vivo (DCs and macrophages) (MDSCs [13]): significant shift towards differentiated DCs and macrophages
S100A8/9 mRNA and protein levels (S100A8/9): significant decrease in S100A8/9 mRNA and protein levels

— patent US20170261507A1, “Methods for Predicting and Monitoring Cancer Patients' Response to Teatment by Measuring Myeloid Derived Suppressor Cells (MDSCs)” (YISSUM RESEARCH DEVELOPMENT COMPANY OF THE HEBREW …, priority 2014, published 2017)
